Some test systems named below: HCC-2998 colon; HOP-62 NSCLC; HOP-92 NSCLC; KM12 colon; NCI-H460 lung; NCI/ADR-RES ovarian; OVCAR-5 ovarian; SK-OV-3 ovarian; SNB-19 CNS; U251 CNS.
Test in all cases: inhibition of tumour cell growth, NCI panel, 48 h

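Protocol summary: plate cells (96-well), add compound at 5 concentrations, incubate 48 h, interpolate endpoints linearly. GI50 marks 50% less growth. TGI denotes the concentration required for complete inhibition of growth.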

The text below walks through data of PubChem BioAssay (NCI).

On to `C[C@@]1([C@H](OC(=O)c2ccccc2)C(N)=O)CO1`, for which the GI50 in the assay with HCC-2998 colon was 20.5 µM; with HOP-62 NSCLC, 21.8 µM; with HOP-92 NSCLC, 14.8 µM; in the assay with KM12 colon, 33.4 µM; with NCI-H460 lung, 20.6 µM; in the assay with NCI/ADR-RES ovarian, 16.4 µM. In addition, the GI50 in the assay with OVCAR-5 ovarian is 34.1 µM; in the assay on SK-OV-3 ovarian, 28.3 µM; with SNB-19 CNS it was 30.5 µM; in the assay on U251 CNS, 17.1 µM. The TGI was 40.3 µM in the assay on HCC-2998 colon; 64.9 µM with HOP-62 NSCLC; 42.1 µM in the assay on HOP-92 NSCLC; more than 100 µM with KM12 colon; 53 µM in the assay with NCI-H460 lung; 44.3 µM in the assay with NCI/ADR-RES ovarian. Further, the TGI in the assay with OVCAR-5 ovarian came to 85.9 µM; in the assay with SK-OV-3 ovarian, 66 µM; in the assay with SNB-19 CNS it was 93.6 µM; with U251 CNS, 37.5 µM.
As to `Cc1ccc(CNc2ccc(Br)cc2)cc1`, the TGI in the assay on HCC-2998 colon was 66 µM; in the assay on HOP-62 NSCLC it was more than 100 µM; in the assay on HOP-92 NSCLC, 65.3 µM; in the assay with KM12 colon, more than 100 µM; in the assay with NCI-H460 lung it was more than 100 µM; in the assay on NCI/ADR-RES ovarian it was more than 100 µM. Further, the TGI in the assay on OVCAR-5 ovarian, with SK-OV-3 ovarian, in the assay with SNB-19 CNS and in the assay with U251 CNS was more than 100 µM in each case.
`C#Cc1cccc(Nc2ncnc3cc(NC(=O)CCl)ccc23)c1`: the GI50 was 4.16 µM in the assay with HCC-2998 colon; 3.22 µM in the assay with HOP-62 NSCLC; 3.56 µM with HOP-92 NSCLC; 3.29 µM in the assay on KM12 colon; 2.89 µM in the assay on NCI-H460 lung; 4.65 µM in the assay on NCI/ADR-RES ovarian. The GI50 in the assay with OVCAR-5 ovarian is 1.12 µM; with SK-OV-3 ovarian it was 3.5 µM; in the assay on SNB-19 CNS, 2.96 µM; in the assay on U251 CNS, 0.789 µM. The TGI in the assay with HCC-2998 colon was found to be 8.46 µM; in the assay on HOP-62 NSCLC it was 6.77 µM; in the assay on HOP-92 NSCLC, 8.09 µM; in the assay with KM12 colon, 7.13 µM; in the assay on NCI-H460 lung, 6.63 µM; in the assay on NCI/ADR-RES ovarian, 17.2 µM. Moreover, the TGI in the assay on OVCAR-5 ovarian was 5.63 µM; with SK-OV-3 ovarian, 11.5 µM; in the assay on SNB-19 CNS, 6.03 µM; in the assay with U251 CNS, 2.92 µM.
For `O=C1NC(=NCCc2ccc(F)cc2)S/C1=C\c1ccc2ncccc2c1`, the GI50 in the assay with HCC-2998 colon, with HOP-62 NSCLC, in the assay with HOP-92 NSCLC, in the assay on KM12 colon, in the assay with NCI-H460 lung and in the assay with NCI/ADR-RES ovarian was more than 25 µM throughout. The GI50 with OVCAR-5 ovarian, in the assay on SK-OV-3 ovarian, with SNB-19 CNS and in the assay on U251 CNS was more than 25 µM each time. The TGI in the assay on HCC-2998 colon, with HOP-62 NSCLC, in the assay with HOP-92 NSCLC, with KM12 colon, with NCI-H460 lung and in the assay on NCI/ADR-RES ovarian was more than 25 µM throughout. Also, the TGI in the assay with OVCAR-5 ovarian, in the assay with SK-OV-3 ovarian, in the assay on SNB-19 CNS and with U251 CNS was more than 25 µM throughout.
Take `COc1cnc2c(c1)C(=O)c1c-2n(CCCNC2=NCCS2)c(=O)c2cc(F)ccc12`: the GI50 in the assay on HCC-2998 colon was 12.8 µM; in the assay with HOP-62 NSCLC it was 0.0595 µM; in the assay with HOP-92 NSCLC, 0.563 µM; in the assay on KM12 colon, 0.577 µM; in the assay on NCI-H460 lung, 0.0356 µM; in the assay on NCI/ADR-RES ovarian, 0.34 µM. For the same molecule, the GI50 is 0.795 µM in the assay with OVCAR-5 ovarian, 0.182 µM in the assay with SK-OV-3 ovarian, 0.15 µM in the assay with SNB-19 CNS and 0.0442 µM in the assay with U251 CNS. Further, the TGI in the assay on HCC-2998 colon was found to be 28.6 µM; with HOP-62 NSCLC, 2.6 µM; with HOP-92 NSCLC, 19.7 µM; with KM12 colon it was 3.68 µM; in the assay on NCI-H460 lung it was 1.11 µM; with NCI/ADR-RES ovarian, 11.9 µM. The TGI with OVCAR-5 ovarian worked out at 13.3 µM; in the assay on SK-OV-3 ovarian it was 0.914 µM; in the assay with SNB-19 CNS, 2.61 µM; in the assay on U251 CNS, 1.35 µM.
Turning to `O=C(Nc1ccc(Oc2ccc3nc(NC(=O)c4ccco4)[nH]c3c2)cc1)Nc1cc(C(F)(F)F)ccc1F`, the GI50 with HCC-2998 colon is 2.44 µM; in the assay with HOP-62 NSCLC it was 3.44 µM; in the assay with HOP-92 NSCLC, 0.234 µM; in the assay on KM12 colon, 0.0178 µM; with NCI-H460 lung, 1.35 µM; with NCI/ADR-RES ovarian it was 1.71 µM. Also, the GI50 in the assay with OVCAR-5 ovarian is 1.49 µM; in the assay on SK-OV-3 ovarian it was 3.44 µM; in the assay with SNB-19 CNS it was 6.95 µM; in the assay with U251 CNS it was 3.33 µM. Besides, the TGI is more than 20.1 µM in the assay on HCC-2998 colon; 10.7 µM in the assay on HOP-62 NSCLC; 5.74 µM in the assay with HOP-92 NSCLC; 4.31 µM in the assay with KM12 colon; 6.85 µM with NCI-H460 lung; 11.4 µM in the assay on NCI/ADR-RES ovarian. Besides, the TGI was 8.63 µM in the assay on OVCAR-5 ovarian, 12.1 µM with SK-OV-3 ovarian, more than 25 µM in the assay on SNB-19 CNS and more than 15.3 µM with U251 CNS.
In the case of `O=C1CC(c2c[nH]c3ccc(F)cc23)C(=O)N1` (stereo not given), the GI50 in the assay on HCC-2998 colon, in the assay with HOP-62 NSCLC, with HOP-92 NSCLC, with KM12 colon, in the assay on NCI-H460 lung and with NCI/ADR-RES ovarian was more than 100 µM in each case. Further, the GI50 in the assay on OVCAR-5 ovarian, in the assay with SK-OV-3 ovarian, with SNB-19 CNS and in the assay on U251 CNS was more than 100 µM throughout. The TGI in the assay with HCC-2998 colon, with HOP-62 NSCLC, in the assay with HOP-92 NSCLC, in the assay on KM12 colon, in the assay with NCI-H460 lung and in the assay with NCI/ADR-RES ovarian was more than 100 µM in each case. The TGI with OVCAR-5 ovarian, with SK-OV-3 ovarian, in the assay with SNB-19 CNS and in the assay on U251 CNS was more than 100 µM each time.
